In patent publication US20050107289A1, “Anti-microbial peptides and compositions” (priority 2001, published 2005):
Like-named read-outs stand apart in the source and are kept apart here. Non-standard residues stand in square brackets, D forms with d. Residues, ends and D or L forms follow the SMILES beside them.

How the values were obtained:
[1] = test system: S. aureus MRSA (ATCC 33591); assay: Mouse peritonitis model, MRSA protection; assay type: in vivo, mice; design: PD50 MRSA: unit not given here
Procedure: Bacteria were prepared for in vivo using procedures similar to those as previously described. […] S. aureus MRSA bacteria (ATCC 33591) were grown at 37° C. in 5 mL of Antibiotic Medium-3 (AM-3, Difco Laboratories) with agitation for 12 hours to a stationary phase. Cells were collected by centrifugation, washed twice with saline solution and resuspended in about 10 mL of saline to an O.D.650 of 1.2. This suspension was diluted ten times in a sterilized 5% mucin (Difco) in saline to a concentration of 2-4×10^7 cfu/ml (actual inoculum size was verified by colony counts on agar plates).
Peptides of the invention were tested in mice to ascertain whether they would protect the mice against bacterial infection using procedures similar to those described in N. Frimodt-Moller et al., The Mouse Peritonitis/Sepsis Model, in Zak et al. (eds.) HANDBOOK OF ANIMAL MODELS OF INFECTION 127-37 (Academic Press 1999).
Male Balb-C mice (6 weeks old, approximately 20 g) were used in the study. Staphylococcus aureus MRSA bacteria (ATCC 33591) were grown at 37° C. with agitation for 12 hours to a stationary phase. Cells were collected by centrifugation, washed twice with saline and resuspended to an O.D.650 of 1.4. This suspension was diluted ten times with saline and resuspended to a concentration of 3-5×10^7 cfu/ml. For each peptide five groups of eight mice per group were infected I.P. with 0.5 ml of the above Staphylococcus aureus MRSA preparation (lethal dose). Forty-five minutes to an hour after infection, each group was treated with a different dose of peptide and a control group received vehicle only. Mice were monitored for fourteen days; death was defined as the end point. Median protecting doses (PD50) were calculated following the Reed and Muench method. […] For IV and SQ models peptide was administered immediately after IP infection.

[2] = test system: murine red blood cells; assay: Red blood cell hemolysis; assay type: cell-based, mouse; design: RBC Hemolysis (HD50): unit not given here
Outline: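 Hemolysis read as A560 of supernatant, scaled between saline (0%) and 1% Triton X-100 (100%) controls; peptides were serially diluted onto 5% murine red cells in saline plus 10% FBS and incubated 30 min at 37° C.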

[3] = test system: vancomycin-resistant Enterococus faecalis (VRE)(ATCC 51575); assay type: cell-based, Enterococcus faecalis; design: key to VRE (in vitro activity): peptide concentration in μg/ml (broth dilution assay); settings: for VRE (in vitro activity): Table 9
Outline: (§1)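 Peptide activity was measured by NCCLS M7-A4 broth dilution, mostly as microdilution with some macrodilution. Serial 2-fold dilutions, approximately 400-2 μg/ml stock range, were made in 5% DMSO/9% aq. sucrose. Overnight cultures were diluted 4000-fold to about 2.5×10^5 cfu/ml inoculum.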

[4] = test system: Streptococcus pneumoniae (ATCC 6301); assay type: cell-based
Outline: as §1

[5] = test system: Bacillus cereus ATCC 11778; assay type: cell-based
Outline: as §1

[6] = Toxicity studies in mice; assay type: in vivo; design: LD50(IP) / LD50(IV): unit not given here
Procedure: Peptides were tested for toxicity in vivo using procedures similar to those described previously. […] Mice (male Balb-C) in groups of 4-8 were given via IV, IP or SQ single bolucdoses of peptides and monitored for 14 days. Toxicity of sublethal doses was assessed based on the behavior and appearance of the mice after peptide administration compared to control mice receiving only vehicle. Signs of acute toxicity included lack of activity, red feet and tail, faster breathing. Death was defined as the end point for lethal doses of peptides.
Toxicology Studies: Initial toxicology studies in mice were conducted to evaluate various routes of drug administration, maximum tolerable dose, and blood and tissue toxicity. Two mice in each dose study were injected with a bolus intravenous (IV), intraperitoneal (IP), or subcutaneous (SQ) doses of peptide SEQ ID NO:8, 18, and 26. For each study, two control animals received vehicle only and no peptide. […] Signs of acute toxicity included any one of the following: lack of activity, red feet and tail, or faster breathing. […] A regimen of […] of peptide SEQ ID NO:18 for three consecutive days was administered to two mice IP and two mice SQ.

[7] = test system: S. aureus (MRSA) ATCC 33591; assay type: cell-based, Staphylococcus aureus; settings: for MRSA (in vitro activity): Table 9
Outline: as §1

[8] = test system: E. coli JM109(DE3); assay type: cell-based, Escherichia coli; settings: JM109
Outline: as §1

[9] = trypsin, α-chymotrypsin, subtilisin, blood plasma; RP-HPLC over 24 h
Procedure: Cyclic peptides having SEQ ID NO:13, 18, 26, and 29 were assayed for proteolytic susceptibility.

[10] = Proton transport in vesicles with pH gradient; settings: vesicles pH 6.5 inside, pH 5.5 outside
Procedure: Formation of supramolecular structures that can permeabilize membranes was also inferred from proton transport activity. Vesicles were prepared having pH 6.5 inside and pH 5.5 in the outside bulk solution. The collapse of the imposed pH gradient in these vesicles, upon formation of the putative transmembrane channel structure, was studied by monitoring the fluorescence intensity of an entrapped pH-sensitive dye. (V. E. Carmichael et al, in J.Am. Chem. Soc. (1989), vol. 111, pages 767-769). Addition of peptide cyclo[-(Trp-D-Leu)3-Gln-D-Leu-]
Unilamellar vesicles were prepared by the reverse-phase evaporation using DPPC, OPPC, cholesterol in the ratio of 1:1:2 in a solution containing 5(6)-carboxyfluorescein (20 mM in phosphate/saline buffer: 137 mM NaCl, 2.6 mM KCI, 6.4 mM Na2HPO4, 1.4 mM KH2PO4, pH 6.5) according to the method of F. Szoka et al. in Proc. Natl. Acad. Sci. USA (1978), vol. 75, pages 4194-4198. Liposomes were then sized by multiple extrusions through Nucleopore® polycarbonate membranes (10 times, 50 psi, using 0.8 and 2×0.4 micron filter stacks) and the untrapped 5(6)-carboxyfluorescein was removed by size exclusion chromatography (Sephadex G-25 column 1×30 cm) using the same phosphate/saline buffer according to the method of F. Olson et al. in Biochim. […] Vesicles formed in this way are approximately 150 nanometer in diameter as determined by electron microscopy. […] In each experiment, […] of the stock vesicle solution (3.5×10^−3 M in phospholipids) was added to pH 5.5 buffer (1.3 ml, 137 mM NaCl, 2.6 mM KCl, 6.4 Na2HPO4, 1.4 KH2PO4) and placed in a 1 cm quartz cuvette inside a stirring thermojacketed sample holder of the fluorescence instrument and equilibrated at 25° C. for 15 minutes with gentle stirring. To the cuvette, through an injector port, […] of the peptide dissolved in DMSO was added with continuous fluorescence monitoring at 520 nm (excitation at 470 nm). The observed data were then normalized for comparison into the fractional change in fluorescence ((I0-It)/(I0-I∞)) (V. E. Carmichael et al, in J.Am. Chem. Soc. (1989), vol. 111, pages 767-769)).

[11] = test system: S. aureus (MRSA) (ATCC No. 33591); assay: Time-killing curve, S. aureus MRSA ATCC 33591; assay type: cell-based, Staphylococcus aureus; settings: FIG. 8a; at MIC concentrations
Procedure: (§2) The speed at which several of the cyclic peptides of the invention kill E. coli JM 109 (DE3), Enterococcus faecium SP 180 and S. aureus (MRSA) (ATCC No. 33591 and 33592) was further tested at room temperature and/or at 37° C. A lower temperature tends to enrich the bacterial cultures for mature bacteria because the bacteria are not growing quickly. […] The presence or absence of immature bacteria in the culture may influence the rate at which the bacteria are killed, because immature bacteria tend to be more susceptible to many forms of antibiotics.
To generate the data shown in FIG. 8a, the log of the number of colony forming units (cfu) per ml of culture was determined as a function of time after treatment of S. aureus (MRSA) (ATCC No. 33591) with cyclo[KHLWLW] (closed circles), cyclo[KRKWLWLW] (closed triangles), and cyclo[KQRWLWLW] (open squares) at MIC concentrations. […] The reduction in cfu count was greater than 3 log units. Cyclic peptide cyclo[KHLWLW] killed effectively all S. aureus (MRSA) within about 60 minutes.

[12] = test system: murine red blood cells; settings: cited from earlier work
[13] = test system: E. coli JM109 (DE3); assay: Time-killing curve, E. coli; assay type: cell-based, Escherichia coli; settings: FIG. 8b; at MIC concentrations
Procedure: as §2
In FIG. 8b, the log of the number of E. coli colony forming units (cfu) per ml of culture is plotted versus time treated with cyclo[KRKWLWLW] (closed triangles), cyclo[KQRWLWLW] (closed circles), cyclo[KHLWLW] (closed squares), and cyclo[KKWLW] (open squares) at MIC concentrations. […] Cyclic peptide cyclo[KHKLWLW] kills effectively all E. coli within about 90 minutes. Cyclic peptides cyclo[KRKWLWLW] and cyclo[KKWLW] kill effectively all of the E. coli within about 130 minutes. […] Nonetheless, these cyclic peptides kill both types of bacteria very quickly.

[14] = media a: anti-microbial media-3 (AM-3)

## CC(C)C[C@H]1NC(=O)[C@H](CCCCN)NC(=O)[C@@H](CCCCN)NC(=O)[C@H](Cc2c[nH]c3ccccc23)NC(=O)[C@@H](CC(C)C)NC(=O)[C@H](Cc2c[nH]c3ccccc23)NC1=O [SEQ ID NO:26, cyclo-(D-Lys-Lys-D-Leu-Trp-D-Leu-Trp)] (cyclo(K[dL]W[dL]W[dK]))
[1]
  PD50 S. aureus MRSA infection: 15 mg/kg
[1]; FIG. 6, mice challenged with lethal doses of MRSA
  PD50 protective dose where 50% of animals survive: 10 ± 2 mg/kg
[1]; Table 12, male Balb-C mice, IP infection, IP peptide
  PD50 MRSA: 15
[1]; Table 13
  In Vivo MRSA PD50: 15 mg/kg
[1]; single bolus IP dose of appropriate amount, 45-60 min after infection
  protection of mice from MRSA infection: completely protect
[2]
  In Vitro RBC MIC: 80 µg/mL
  RBC Hemolysis (HD50): 80
[3]; ATCC 51575
  In Vitro VREF MIC: 40 µg/mL
  VRE MIC: 40 µg/mL
[3]; media a: AM-3
  VRE (in vitro activity): 40
[4]
  S. pneum. MIC: 30 µg/mL
[5]
  B. cerius MIC: > 10 µg/mL
[6]; Table 12, male Balb-C mice
  LD50(IP): 75
  LD50(IV): 24
[6]; male, Balb-C, mouse, in vivo, ip, Table 13
  LD50 at 14 days: 75 mg/kg
[6]; mice, IP 50 mg/kg
  signs at highest dose: signs of acute toxicity that were not observable after one hour
[6]; mice, IP, maximum tested dose 50 mg/kg
  tolerability: tolerated up to the maximum tested IP dose
[7]; ATCC 33591
  In Vitro MRSA MIC: 10 µg/mL
  MRSA MIC: 10 µg/mL
  S. aureus (MRSA) MIC: 10 µg/mL
[7]; [14]
  MRSA (in vitro activity): 10
[8]
  E. coli MIC: 17 µg/mL
[9]
  proteolytic stability: stable

## cyclo[-(^MeN-D-Ala-Phe)4-]
[10]
  proton / ion transport activity: does not promote proton transport activity

## CC(C)C[C@H]1NC(=O)[C@H](Cc2c[nH]c3ccccc23)NC(=O)[C@@H](CCCCN)NC(=O)[C@H](CCCNC(=N)N)NC(=O)[C@@H](CCCCN)NC(=O)[C@H](Cc2c[nH]c3ccccc23)NC(=O)[C@@H](CC(C)C)NC(=O)[C@H](Cc2c[nH]c3ccccc23)NC1=O [SEQ ID NO:19, D-Lys-Arg-D-Lys-Trp-D-Leu-Trp-D-Leu-Trp] (cyclo([dK]R[dK]W[dL]W[dL]W))
[11]
  time to kill effectively all S. aureus (MRSA): within about five minutes
[2]
  RBC Hemolysis (HD50): 50
[3]; ATCC 51575
  VRE MIC: 8 µg/mL
[3]; media a: AM-3
  VRE (in vitro activity): 8
[4]
  S. pneum. MIC: 5 µg/mL
[5]
  B. cerius MIC: 3 µg/mL
[7]; ATCC 33591
  MRSA MIC: 15 µg/mL
  S. aureus (MRSA) MIC: 10 µg/mL
[7]; [14]
  MRSA (in vitro activity): 15

## cyclo[-(Trp-D-Leu)3-Gln-D-Leu-] [SEQ ID NO:2]
[10]
  proton / ion transport activity: rapid collapse of the pH gradient

## MELLITIN [linear peptide that is hemolytic against mammalian red blood cells, reference compound]
[12]
  hemolytic concentration against mammalian red blood cells in vitro: about 10 μg/ml
[2]; Table 9
  RBC Hemolysis (HD50): 10
[3]; media c: Brain Heart Infusion (BHI)
  VRE (in vitro activity): 6.3
[7]; media b: cation adjusted Meuller Hinton broth (MHBII)
  MRSA (in vitro activity): 6.3

## cyclo[-(Gln-D-Leu)4]
[10]
  proton / ion transport activity: does not display any ion transport activity

## CC(C)C[C@H]1NC(=O)[C@H](Cc2c[nH]cn2)NC(=O)[C@@H](CCCCN)NC(=O)[C@H](Cc2c[nH]c3ccccc23)NC(=O)[C@@H](CC(C)C)NC(=O)[C@H](Cc2c[nH]c3ccccc23)NC1=O [SEQ ID NO:27, cyclo-(D-Lys-His-D-Leu-Trp-D-Leu-Trp)] (cyclo(H[dL]W[dL]W[dK]))
[11]
  time to kill effectively all S. aureus (MRSA): ≤ 60 min
[2]
  RBC Hemolysis (HD50): 25
[3]; ATCC 51575
  VRE MIC: 40 µg/mL
[3]; media a: AM-3
  VRE (in vitro activity): 40
[4]
  S. pneum. MIC: 5 µg/mL
[5]
  B. cerius MIC: 5 µg/mL
[7]; ATCC 33591
  MRSA MIC: 10 µg/mL
  S. aureus (MRSA) MIC: 10 µg/mL
[7]; [14]
  MRSA (in vitro activity): 10
[13]
  time to kill effectively all E. coli: ≤ 90 min
[8]
  E. coli MIC: 100 µg/mL
